# Data reported in patent US20100120700A1, “METHODS AND COMPOSITIONS FOR TREATING CERVICAL CANCER” (priority 2000, published 2010).
# Values joined by “and” are separate entries in the source; they are usually repeats but may differ in a detail not shown here. Equal values may be shown once.
# Columns and labels:
# Assay in all cases: G assay PDZ-PL binding
# CARD14 domain 1 = biological target: T1, CARD14 domain 1 (Homo sapiens, UniProt Q9BXL6); conditions: peptide 10 uM, protein 5
# T1 construct: made in house; host or cells: E. coli (DH5alpha, BL21 or JM109)
# T1 sequence (Q9BXL6 565-664): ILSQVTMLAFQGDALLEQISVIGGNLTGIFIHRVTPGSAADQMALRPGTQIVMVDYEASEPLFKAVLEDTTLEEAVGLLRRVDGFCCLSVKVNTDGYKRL
# Procedure: (§1) (1) A PDZ-domain polypeptide is bound to a surface, e.g. a protein binding surface. In a preferred embodiment, a GST/PDZ fusion protein containing one or more PDZ domains is bound to a polystyrene 96-well plate. […] In one embodiment, the GST/PDZ fusion protein is bound via an anti-GST antibody that is coated onto the 96-well plate. Adequate binding to the plate can be achieved when: • a. 100 uL per well of 5 ug/mL goat anti-GST polyclonal antibody (Pierce) in PBS is added to a polystyrene 96-well plate (e.g., Num Polysorb) at 4° C. for 12 hours. • b. The plate is blocked by addition of 200 uL per well of PBS/BSA for 2 hours at 4° C. • c. The plate is washed 3 times with PBS. • d. 50 uL per well of 5 ug/mL GST/PDZ fusion protein) or, as a negative control, GST polypeptide alone (i.e. not a fusion protein) in PBS/BSA is added to the plate for 2 hours at 4° C. • e. The plate is again washed 3 times with PBS.
# (§2) (2) Biotinylated PL peptides are allowed to react with the surface by addition of 50 uL per well of 20 uM solution of the biotinylated peptide in PBS/BSA for 10 minutes at 4° C., followed by an additional 20 minute incubation at 25° C.
# (§3) (3) The binding of the biotinylated peptide to the GST/PDZ fusion protein surface can be detected using a variety of methods and detectors known to one of skill in the art. In one embodiment, 100 uL per well of 0.5 ug/mL streptavidin-horse radish peroxidase (HRP) conjugate dissolved in BSA/PBS is added and allowed to react for 20 minutes at 4° C. The plate is then washed 5 times with 50 mM Tris pH 8.0 containing 0.2% Tween 20, and developed by addition of 100 uL per well of HRP-substrate solution (TMB, Dako) for 20 minutes at room temperature (RT). The reaction of the HRP and its substrate is terminated by addition of 100 uL per well of 1M sulfuric acid, and the absorbance of each well of the plate is read at 450 nm.
# (§4) (4) Specific binding of a PL peptide and a PDZ domain polypeptide is determined by comparing the signal from the well(s) in which the PL peptide and PDZ domain polypeptide are combined, with the background signal(s). The background signal is the signal found in the negative control(s). Typically a specific or selective reaction will be at least twice background signal, more typically more than 5 times background, and most typically 10 or more times the background signal. In addition, a statistically significant reaction will involve multiple measurements of the reaction with the signal and the background differing by at least two standard errors, more typically four standard errors, and most typically six or more standard errors. Correspondingly, a statistical test (e.g. a T-test) comparing repeated measurements of the signal with-repeated measurements of the background will result in a p-value<0.05, more typically a p-value<0.01, and most typically a p-value<0.001 or less. As noted, in an embodiment of the “G” assay, the signal from binding of a given PL peptide to immobilized (surface bound) GST polypeptide alone is one suitable negative control (sometimes referred to as “B 1”). Because all measurement are done in multiples (i.e. at least duplicate) the arithmetic mean (or, equivalently, average.) of several measurements is used in determining the binding, and the standard error of the mean is used in determining the probable error in the measurement of the binding. The standard error of the mean of N measurements equals the square root of the following: the sum of the squares of the difference between each measurement and the mean, divided by the product of (N) and (N−1). Thus, in one embodiment, specific binding of the PDZ protein to the platebound peptide is determined by comparing the mean signal (“mean S”) and standard error of the signal (“SE”) for a particular PL-PDZ combination with the mean B1. […]
# PSD95 domain 1, 2, 3 = biological target: T2, PSD95 domain 1, 2, 3 (Homo sapiens, UniProt P78352); conditions: peptide 10 uM, protein 5
# T2 construct: the DNA portion cloned represents the PDZ domains and the cDNA portion located between individual domains; made in house; host or cells: E. coli (DH5alpha, BL21 or JM109)
# Procedure: as §1, §2, §3, §4
# novel PDZ gene domain 1 = biological target: T3, novel PDZ gene domain 1 (Homo sapiens, UniProt Q9H5P4); conditions: peptide 10 uM, protein 5
# T3 construct: made in house; host or cells: E. coli (DH5alpha, BL21 or JM109)
# T3 sequence (Q9H5P4 with tags, fused parts or gaps): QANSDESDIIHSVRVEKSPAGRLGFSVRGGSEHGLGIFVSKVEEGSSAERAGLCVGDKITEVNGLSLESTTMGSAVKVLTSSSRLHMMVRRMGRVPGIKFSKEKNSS
# Procedure: as §1, §2, §3, §4
# PAR3 #278.1 domain 3 = biological target: T4, PAR3 #278.1 domain 3 (Homo sapiens, UniProt Q8TEW0); conditions: peptide 10 uM, protein 5
# T4 construct: made in house; host or cells: E. coli (DH5alpha, BL21 or JM109)
# T4 sequence (Q8TEW0 579-681): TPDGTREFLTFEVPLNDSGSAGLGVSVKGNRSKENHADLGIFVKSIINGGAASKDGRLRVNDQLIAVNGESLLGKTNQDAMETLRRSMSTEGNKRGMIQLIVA
# Procedure: as §1, §2, §3, §4
# NeDLG domain 1, 2 = biological target: T5, NeDLG domain 1, 2 (Homo sapiens, UniProt Q92796); conditions: peptide 10 uM, protein 5
# T5 construct: the DNA portion cloned represents the PDZ domains and the cDNA portion located between individual domains; made in house; host or cells: E. coli (DH5alpha, BL21 or JM109)
# T5 sequence (Q92796 129-315 limits assumed): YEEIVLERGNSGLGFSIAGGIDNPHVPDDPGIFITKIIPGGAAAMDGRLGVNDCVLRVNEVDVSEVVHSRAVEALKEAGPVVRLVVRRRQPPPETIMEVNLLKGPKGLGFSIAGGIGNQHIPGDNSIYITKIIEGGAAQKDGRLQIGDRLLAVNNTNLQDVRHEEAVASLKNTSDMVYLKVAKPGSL
# Procedure: as §1, §2, §3, §4
# ZO-2 domain 1 = biological target: T6, ZO-2 domain 1 (Homo sapiens, UniProt Q9UDY2); conditions: peptide 10 uM, protein 5
# T6 construct: made in house; host or cells: E. coli (DH5alpha, BL21 or JM109), vector pGEX-3X
# T6 sequence (Q9UDY2 27-122): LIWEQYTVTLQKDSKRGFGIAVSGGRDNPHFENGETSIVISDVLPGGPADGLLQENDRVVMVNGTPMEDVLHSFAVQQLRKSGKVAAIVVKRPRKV
# Procedure: as §1, §2, §3, §4
# KIAA0751 domain 1 = biological target: T7, KIAA0751 domain 1 (Homo sapiens, UniProt Q9UQ26); conditions: peptide 10 uM, protein 5
# T7 construct: made in house; host or cells: E. coli (DH5alpha, BL21 or JM109)
# T7 sequence (Q9UQ26 with tags, fused parts or gaps): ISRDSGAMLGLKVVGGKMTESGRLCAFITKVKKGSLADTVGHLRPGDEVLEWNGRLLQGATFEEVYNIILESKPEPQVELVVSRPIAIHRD
# Procedure: as §1, §2, §3, §4
# MAGI 1 domain 5 = biological target: T8, MAGI 1 domain 5 (Homo sapiens, UniProt Q96QZ7); conditions: peptide 10 uM, protein 5
# T8 construct: made in house; host or cells: E. coli (DH5alpha, BL21 or JM109)
# T8 sequence (Q96QZ7 988-1099): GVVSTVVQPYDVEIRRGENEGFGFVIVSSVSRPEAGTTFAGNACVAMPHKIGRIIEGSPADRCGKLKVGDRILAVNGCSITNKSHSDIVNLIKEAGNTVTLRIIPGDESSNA
# Procedure: as §1, §2, §3, §4
# DLG2 #290.1 domain 2 = biological target: T9, DLG2 #290.1 domain 2 (Homo sapiens, UniProt Q15700, K278N); conditions: peptide 10 uM, protein 5
# T9 construct: made in house; host or cells: E. coli (DH5alpha, BL21 or JM109)
# T9 sequence (Q15700 whole entry, looked up, the tested form differs by isoform, tags, fused parts or gaps, stated change not applied): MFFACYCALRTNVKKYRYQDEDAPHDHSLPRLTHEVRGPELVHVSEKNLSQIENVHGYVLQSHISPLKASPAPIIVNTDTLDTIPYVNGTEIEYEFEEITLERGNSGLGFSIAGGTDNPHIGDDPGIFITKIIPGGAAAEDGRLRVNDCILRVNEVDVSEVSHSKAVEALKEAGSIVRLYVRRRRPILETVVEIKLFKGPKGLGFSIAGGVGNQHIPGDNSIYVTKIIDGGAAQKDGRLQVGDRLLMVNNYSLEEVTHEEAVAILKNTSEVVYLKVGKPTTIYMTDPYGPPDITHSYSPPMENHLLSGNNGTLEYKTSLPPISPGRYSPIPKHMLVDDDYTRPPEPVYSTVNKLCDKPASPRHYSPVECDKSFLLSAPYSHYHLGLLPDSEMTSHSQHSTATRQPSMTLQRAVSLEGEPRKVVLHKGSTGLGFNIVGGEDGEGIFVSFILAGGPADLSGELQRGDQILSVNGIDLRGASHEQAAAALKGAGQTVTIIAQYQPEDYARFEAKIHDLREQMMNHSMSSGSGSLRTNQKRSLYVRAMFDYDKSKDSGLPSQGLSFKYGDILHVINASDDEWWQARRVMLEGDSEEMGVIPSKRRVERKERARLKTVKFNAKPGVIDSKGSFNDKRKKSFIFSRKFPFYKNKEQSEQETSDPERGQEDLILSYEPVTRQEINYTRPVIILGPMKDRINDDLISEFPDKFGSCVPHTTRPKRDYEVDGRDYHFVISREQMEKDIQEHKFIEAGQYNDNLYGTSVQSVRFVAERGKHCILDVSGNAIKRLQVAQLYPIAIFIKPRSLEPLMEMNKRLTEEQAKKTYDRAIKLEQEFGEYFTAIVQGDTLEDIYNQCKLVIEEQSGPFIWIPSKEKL
# Procedure: as §1, §2, §3, §4
# PSD95 domain 2 = biological target: T10, PSD95 domain 2 (Homo sapiens, UniProt P78352); conditions: vs GST only well, peptide 10 uM, protein 5
# T10 construct: made in house; host or cells: E. coli (DH5alpha, BL21 or JM109)
# Procedure: as §1, §2, §3, §4
# INADL domain 4 = biological target: T11, INADL domain 4 (Homo sapiens, UniProt Q8NI35); conditions: peptide 10 uM, protein 5
# T11 construct: made in house; host or cells: E. coli (DH5alpha, BL21 or JM109)
# T11 sequence (Q8NI35 with tags, fused parts or gaps): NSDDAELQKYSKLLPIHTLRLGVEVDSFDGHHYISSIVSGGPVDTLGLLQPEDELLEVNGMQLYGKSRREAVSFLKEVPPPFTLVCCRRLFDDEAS
# Procedure: as §1, §2, §3, §4
# PDZ-73 domain 2 = biological target: T12, PDZ-73 domain 2 (Homo sapiens, UniProt Q9Y6N9); conditions: peptide 10 uM, protein 5
# T12 construct: made in house; host or cells: E. coli (DH5alpha, BL21 or JM109), vector pGEX-3X
# T12 sequence (Q9Y6N9 with tags, fused parts or gaps): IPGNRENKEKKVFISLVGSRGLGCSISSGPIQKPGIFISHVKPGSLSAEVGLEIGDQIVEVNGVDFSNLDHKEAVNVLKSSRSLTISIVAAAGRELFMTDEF
# Procedure: as §1, §2, §3, §4
substance,measurement,setting,value
"20 mer peptide corresponding to the C-terminus of HPV16 E6 (PDZ ligand), biotinylated in binding assays; ends SSRTRRETQL (SEQ ID NO: 13) [HPV E6 #16]",Ave OD,CARD14 domain 1; A450 nm,0.342
same,OD S/N,CARD14 domain 1; vs GST only well,1.52
same,Ave OD,"PSD95 domain 1, 2, 3; A450 nm",3.523 and 3.866
same,OD S/N,"PSD95 domain 1, 2, 3; vs GST only well",22.58 and 19.67
same,Ave OD,novel PDZ gene domain 1; A450 nm,0.5455
same,OD S/N,novel PDZ gene domain 1; vs GST only well,1.89
same,Ave OD,PAR3 #278.1 domain 3; A450 nm,0.352
same,OD S/N,PAR3 #278.1 domain 3; vs GST only well,1.80
same,Ave OD,"NeDLG domain 1, 2; A450 nm",3.401 and 3.118
same,OD S/N,"NeDLG domain 1, 2; vs GST only well",19.83 and 17.13
same,Ave OD,ZO-2 domain 1; A450 nm,0.3415 and 0.622
same,OD S/N,ZO-2 domain 1; vs GST only well,2.11 and 2.56
same,Ave OD,KIAA0751 domain 1; A450 nm,0.4505
same,OD S/N,KIAA0751 domain 1; vs GST only well,2.10
same,Ave OD,MAGI 1 domain 5; A450 nm,0.4325 and 0.541
same,OD S/N,MAGI 1 domain 5; vs GST only well,1.77 and 3.12
same,Ave OD,DLG2 #290.1 domain 2; A450 nm,1.784 and 1.439
same,OD S/N,DLG2 #290.1 domain 2; vs GST only well,9.17 and 13.39
same,OD S/N,PSD95 domain 2,12.23 and 12.53
same,Ave OD,INADL domain 4; A450 nm,0.357
same,OD S/N,INADL domain 4; vs GST only well,2.15
same,Ave OD,PDZ-73 domain 2; A450 nm,0.5615
same,OD S/N,PDZ-73 domain 2; vs GST only well,1.95
